Structure (SMILES) | melting point
O=C(Nc1nc(-c2ccco2)c(C(=O)C2CCOCC2)s1)c1cccc2c1OC(F)(F)O2 [Compound 402, 2,2-Difluoro-N-[4-(2-furyl)-5-(tetrahydropyran-4-ylcarbonyl)thiazol-2-yl]-1,3-benzodioxol-4-carboxamide] | 206 to 207 °C
N#Cc1ccccc1C(=O)Nc1nc(-c2ccco2)c(C(=O)C2CCOCC2)s1 [Compound 377, 2-Cyano-N-[4-(2-furyl)-5-(tetrahydropyran-4-ylcarbonyl)-thiazol-2-yl]benzamide] | 221 to 224 °C
O=C(Nc1nc(-c2ccco2)c(C(=O)C2CCOCC2)s1)c1cc(F)ccc1F [Compound 396, 2,5-Difluoro-N-[4-(2-furyl)-5-(tetrahydropyran-4-ylcarbonyl)thiazol-2-yl]benzamide] | 172 to 174 °C
O=C(CN1CCC(N2CCCC2)CC1)Nc1nc(-c2ccco2)c(C(=O)C2CCOCC2)s1 [Compound 456, N-[4-(2-Furyl)-5-(tetrahydropyran-4-ylcarbonyl)thiazol-2-yl]-2-[4-(1-pyrrolidinyl)piperidino]acetamide] | 183 to 184 °C
CN1CCN(CC(=O)Nc2nc(-c3ccco3)c(C(=O)C3CCOCC3)s2)CC1 [Compound 467, N-[4-(2-Furyl)-5-(tetrahydropyran-4-ylcarbonyl)thiazol-2-yl]-2-(4-methylpiperazin-1-yl)acetamide] | 106 to 112 °C
Cc1ccc(C(=O)Nc2nc(-c3ccco3)c(C(=O)C3CCOCC3)s2)o1 [Compound 417, N-[4-(2-Furyl)-5-(tetrahydropyran-4-ylcarbonyl)thiazol-2-yl]-5-methylfuran-2-carboxamide] | 209 to 212 °C
N#Cc1ccc(C(=O)Nc2nc(-c3ccco3)c(C(=O)C3CCC(=O)CC3)s2)cc1 [Compound 357, 4-Cyano-N-[4-(2-furyl)-5-(4-oxocyclohexylcarbonyl)-thiazole-2-yl]benzamide] | 211 to 212 °C
CC(C)(C)C(=O)c1sc(NC(=O)c2ccncc2)nc1-c1ccco1 [Compound 306, N-[4-(2-Furyl)-5-pivaloylthiazol-2-yl]pyridine-4-carboxamide] | 240 to 245 °C
CN(C)c1ccc(C(=O)Nc2nc(-c3ccco3)c(C(=O)C3CCOCC3)s2)cc1 [Compound 370, 4-(Dimethylamino)-N-[4-(2-furyl)-5-(tetrahydropyran-4-ylcarbonyl)thiazol-2-yl]benzamide] | 238 to 240 °C
O=C(Nc1nc(-c2ccco2)c(C(=O)C2CCC2)s1)c1ccco1 [Compound 331, N-[5-(Cyclobutylcarbonyl)-4-(2-furyl)thiazol-2-yl]furan-2-carboxamide] | 188 to 192 °C
Cc1ccc(C(=O)c2sc(NC(=O)c3ccncc3)nc2-c2ccco2)o1 [Compound 250, N-[4-(2-Furyl)-5-(5-methylfuran-2-ylcarbonyl)thiazol-2-yl]pyridine-4-carboxamide] | 185 to 189 °C
O=C(Nc1nc(-c2ccco2)c(C(=O)C2CCOCC2)s1)c1c(F)cccc1F [Compound 397, 2,6-Difluoro-N-[4-(2-furyl)-5-(tetrahydropyran-4-ylcarbonyl)thiazol-2-yl]benzamide] | 168 to 170 °C
Cn1cc(C(=O)Nc2nc(-c3ccco3)c(C(=O)C3CCOCC3)s2)cn1 [Compound 424, N-[4-(2-Furyl)-5-(tetrahydropyran-4-ylcarbonyl)thiazol-2-yl]-1-methylpyrazole-4-carboxamide] | 243 to 247 °C
N#Cc1ccc(C(=O)Nc2nc(-c3ccco3)c(C(=O)C3CCOCC3)s2)cc1 [Compound 379, 4-Cyano-N-[4-(2-furyl)-5-(tetrahydropyran-4-ylcarbonyl)-thiazol-2-yl]benzamide] | 231 to 234 °C
O=C(CN1CCN(C2CCOCC2)CC1)Nc1nc(-c2ccco2)c(C(=O)c2ccccn2)s1 [Compound 187, N-[4-(2-Furyl)-5-(pyridin-2-ylcarbonyl)thiazol-2-yl]-2-[4-(tetrahydropyran-4-yl)piperazin-1-yl]acetamide] | 172 to 188 °C
O=C(Nc1nc(-c2ccco2)c(C(=O)C2CCOCC2)s1)c1ccc(CN2CCOCC2)cc1 [Compound 387, N-[4-(2-Furyl)-5-(tetrahydropyran-4-ylcarbonyl)thiazol-2-yl]-4-(morpholinomethyl)benzamide] | 92 to 96 °C
O=C(Nc1nc(-c2ccco2)c(C(=O)C2CCOCC2)s1)c1ccoc1 [Compound 421, N-[4-(2-Furyl)-5-(tetrahydropyran-4-ylcarbonyl)thiazol-2-yl]furan-3-carboxamide] | 236 to 238 °C
O=C(Nc1nc(-c2ccco2)c(C(=O)C2CCOCC2)s1)c1ccc(CN2CCCCC2)cc1 [Compound 385, N-[4-(2-Furyl)-5-(tetrahydropyran-4-ylcarbonyl)thiazol-2-yl]-4-(piperidinomethyl)benzamide] | 160 to 162 °C
CC(=O)N1CCN(CC(=O)Nc2nc(-c3ccco3)c(C(=O)c3ccccn3)s2)CC1 [Compound 183, 2-(4-Acetylpiperazin-1-yl)-N-[4-(2-furyl)-5-(pyridin-2-ylcarbonyl)thiazol-2-yl]acetamide] | 170 to 171 °C
CN1CCN(CC(=O)Nc2nc(-c3ccco3)c(C(=O)c3ccccn3)s2)CC1=O.Cl | 170 to 188 °C
COC(C)(C)CN1CCN(CC(=O)Nc2nc(-c3ccco3)c(C(=O)C3CCOCC3)s2)CC1 [Compound 471, N-[4-(2-Furyl)-5-(tetrahydropyran-4-ylcarbonyl)thiazol-2-yl]-2-[4-(2-methoxy-2-methylpropyl)piperazin-1-yl]acetamide] | 105 to 107 °C
COCC(=O)c1sc(NC(=O)c2ccc(Cl)nc2)nc1-c1ccco1 [Compound 310, 2-Chloro-N-[4-(2-furyl)-5-(methoxyacetyl)thiazol-2-yl]pyridine-5-carboxamide] | 174 to 183 °C
O=C(CN1CCC(N2CCCCC2)CC1)Nc1nc(-c2ccco2)c(C(=O)c2ccccn2)s1 [Compound 178, N-[4-(2-Furyl)-5-(pyridin-2-ylcarbonyl)thiazol-2-yl]-2-(4-piperidinopiperidino)acetamide] | 214 to 220 °C (dec.)

Continued, values first:

melting point | Structure (SMILES)
234 to 235 °C | O=C(Nc1nc(-c2ccco2)c(C(=O)c2ccccn2)s1)c1cnc2occc2c1 [Compound 156, N-[4-(2-Furyl)-5-(pyridin-2-ylcarbonyl)thiazol-2-yl]-furo[2,3-b]pyridine-5-carboxamide]
145 to 147 °C | COCCN(C)c1cc(C(=O)Nc2nc(-c3ccco3)c(C(=O)c3ccccc3)s2)ccn1 [Compound 53, N-[5-Benzoyl-4-(2-furyl)thiazol-2-yl]-2-[N-(2-methoxyethyl)-N-methylamino]pyridine-4-carboxamide]
234 to 235 °C | O=C(c1ccccn1)c1sc(NC(=O)C2CCOCC2)nc1-c1ccco1 [Compound 102, N-[4-(2-Furyl)-5-(pyridin-2-ylcarbonyl)thiazol-2-yl]tetrahydropyran-4-carboxamide]
260 to 265 °C (dec.) | CN(C)c1ccc(C(=O)c2sc(NC(=O)c3ccncc3)nc2-c2ccco2)cn1 [Compound 230, N-{5-[2-(Dimethylamino)pyridin-5-ylcarbonyl]-4-(2-furyl)thiazol-2-yl}pyridine-4-carboxamide]
240 to 245 °C | Cc1ccnc(C(=O)c2sc(NC(=O)c3ccncc3)nc2-c2ccco2)c1 [Compound 203, N-[4-(2-Furyl)-5-(4-methylpyridin-2-ylcarbonyl)thiazol-2-yl]pyridine-4-carboxamide]
245 to 248 °C | O=C(Nc1nc(-c2ccco2)c(C(=O)c2cccnc2)s1)c1ccncc1 [Compound 211, N-[4-(2-Furyl)-5-(pyridin-3-ylcarbonyl)thiazol-2-yl]pyridine-4-carboxamide]
278 to 283 °C (dec.) | O=C(Nc1nc(-c2ccco2)c(C(=O)c2ccccn2)s1)c1ccc([N+](=O)[O-])o1 [Compound 144, N-[4-(2-Furyl)-5-(pyridin-2-ylcarbonyl)thiazol-2-yl]-5-nitrofuran-2-carboxamide]
220 to 225 °C | Cn1cc(C(=O)Nc2nc(-c3ccco3)c(C(=O)c3ccccc3)s2)ccc1=O [Compound 58, N-[5-Benzoyl-4-(2-furyl)thiazol-2-yl]-1-methyl-2-oxo-1,2-dihydropyridine-5-carboxamide]
209 to 211 °C | Cn1ccc(C(=O)c2sc(NC(=O)c3ccncc3)nc2-c2ccco2)c1 [Compound 261, N-[4-(2-Furyl)-5-(1-methylpyrrol-3-ylcarbonyl)thiazol-2-yl]pyridine-4-carboxamide]
261 to 265 °C | Cc1ccc(C(=O)c2sc(NC(=O)c3ccc(C#N)cc3)nc2-c2ccco2)cn1 [Compound 221, 4-Cyano-N-[4-(2-furyl)-5-(2-methylpyridin-5-ylcarbonyl)thiazol-2-yl]benzamide]
203 to 204 °C | O=C(CN1CCN(c2ccccc2)CC1)Nc1nc(-c2ccco2)c(C(=O)c2ccccn2)s1 [Compound 184, N-[4-(2-Furyl)-5-(pyridin-2-ylcarbonyl)thiazol-2-yl]-2-(4-phenylpiperazin-1-yl)acetamide]
195 to 196 °C | CC1(C(=O)Nc2nc(-c3ccco3)c(C(=O)c3ccccn3)s2)CC1 [Compound 100, N-[4-(2-Furyl)-5-(pyridin-2-ylcarbonyl)thiazol-2-yl]-1-methylcyclopropanecarboxamide]
234 to 236 °C | O=C(Nc1nc(-c2ccco2)c(C(=O)c2cccnc2)s1)c1ccco1 [Compound 214, N-[4-(2-Furyl)-5-(pyridin-3-ylcarbonyl)thiazol-2-yl]furan-2-carboxamide]
276 to 285 °C | O=C(Nc1nc(-c2ccco2)c(C(=O)c2ccncc2)s1)c1ccncc1 [Compound 236, N-[4-(2-Furyl)-5-(pyridin-4-ylcarbonyl)thiazol-2-yl]pyridine-4-carboxamide]
230 to 231 °C | CC(C)(O)c1cc2cc(C(=O)Nc3nc(-c4ccco4)c(C(=O)c4ccccn4)s3)ccc2o1 [Compound 155, N-[4-(2-Furyl)-5-(pyridin-2-ylcarbonyl)thiazol-2-yl]-2-(1-hydroxy-1-methylethyl)-1-benzofuran-5-carboxamide]

— patent US7928098B2, “Therapeutic and/or preventive agents for a sleep disorder” (Kyowa Hakko Kirin Co., Ltd., priority 2005, dated 2011)
